In publication PMC6245648 (Chemical research in toxicology, 2016):
Read-outs that look alike come from different tables or passages of the source.

Legend:
Type in all cases: cell-based
[1] = biological target: T1, mitochondrial complex I (NADH: ubiquinone oxidoreductase) (Rattus norvegicus, UniProt A6K8N6+P03889+Q641Y2); details: read-out: % inhibition at 10 μM
[2] = biological target: T1, mitochondrial complex I (NADH: ubiquinone oxidoreductase); details: read-out: % inhibition at 10 μM; remark: listed apart in the source
[3] = biological target: T1, mitochondrial complex I (NADH: ubiquinone oxidoreductase); details: read-out: % inhibition at 10 μM; remark: listed apart in the source
[4] = biological target: T1, mitochondrial complex I (NADH: ubiquinone oxidoreductase); details: read-out: % inhibition at 200 μM
[5] = biological target: T1, mitochondrial complex I (NADH: ubiquinone oxidoreductase); details: read-out: % inhibition at 10 μM; remark: listed apart in the source
[6] = biological target: T1, mitochondrial complex I (NADH: ubiquinone oxidoreductase); details: read-out: % inhibition at 10 μM; remark: listed apart in the source

Compound CCN1C(=Cc2ccc3ccccc3[n+]2CC)C=Cc2ccccc21 [B, 2,2’-cyanine] has an inhibition at 10 µM [1] of 70.8%.
CCCN1C(=CC=Cc2sc3ccccc3[n+]2CCC)Sc2ccccc21 [E, DiSC3(3)] showed an inhibition at 10 µM [2] of 83%.
C=C(C)[C@H]1Cc2c(ccc3c2O[C@@H]2COc4cc(OC)c(OC)cc4[C@@H]2C3=O)O1 [H, rotenone] was tested, and the inhibition at 10 µM [3] was 88%.
Compound CCCN1C(=CC=CC=Cc2sc3ccccc3[n+]2CCC)Sc2ccccc21 [F, DiSC3(5)] has an inhibition at 10 µM [2] of 83%.
Compound C[n+]1ccc(-c2ccccc2)cc1 [A, 1-methyl-4-phenylpyridinium] has an inhibition at 200 µM [4] of 12.5%.
For CCN1C=CC(=Cc2cc[n+](CC)c3ccccc23)c2ccccc21 [C, 4,4’-cyanine], the inhibition at 10 µM [5] was 60.8%.
For CCN1C(=CC=Cc2oc3ccccc3[n+]2CC)Oc2ccccc21 [D, DiOC2(3)], the inhibition at 10 µM [6] was 79%.
